From patent US20200281873A1, “Adamantane or Bicyclic Monoterpenoid Derivatives for Use in the Treatment of Leishmaniasis” (Commissariat a l'Energie Atomique et aux Energies …, priority 2017, published 2020)

Experiments:
[1] = Incubation of VP343 with human hepatic microsomes (LC-MS); type: in vitro ADME; details: t = 45 min
Description: (§1) The metabolites' identification of VP343 was performed after incubation of the compound with hepatic microsomal preparations from mouse, dog and human origin. The assay was performed by mixing VP343 at 5; 4; 2 or 1 μM with CD1 mouse hepatic microsomes (reference MIC255030 Biopredic) at 0.5 mg/mL of protein, or Beagle dog hepatic microsomes (reference MIC257013 Biopredic) at 1 mg/mL of protein, or human hepatic microsomes (reference MIC159882 Biopredic) at 1 mg/mL of protein, together with 1 mM NADPH (reference N1630 Sigma Aldrich), a phase I reaction's cofactor, in a 0.1 M phosphate buffer pH 7.4. Samples were then incubated in a Thermomixer® (Eppendorf) at 37° C. and 300 rotations per minute. After 45 minutes of incubation, the reaction was stopped with acetonitrile (0.5 volume of the experimental incubation volume). The samples' supernatants were then separated from the microsomes by centrifugation at 20,000 g during 10 minutes (Sorvall ST 16, Thermo Fisher Scientific) before analysis by liquid chromatography coupled to mass spectrometry (LC-MS).
(§2) The analysis was performed in two steps: first, on a positive electrospray ionisation source using a Waters Acquity I class UPLC (Ultra Performance Liquid Chromatography) system coupled to a Waters triple quadrupole mass spectrometer (Xevo TQMS) and then on an orbitrap source using a Thermo Fisher UHPLC (Ultra High Performance Liquid Chromatography) system (Ultimate 3000) coupled to a Thermo Fisher orbitrap mass spectrometer (Q Exactive) to confirm the structures of the identified metabolites. VP343 and his metabolites were separated by the UPLC system with a six minutes gradient of acetonitrile containing 0.1% of formic acid in a BEH C18 column (1.7 μm, 2.1×50 mm, Waters) with a mobile phase flow rate of 0.6 mL/min.
The metabolization of VP343 was studied by incubating the compound with mouse, dog, and human hepatic microsomes. The concentration of VP343 in the microsomal preparations was measured at t=0 and at t=45 min by liquid chromatography-tandem mass spectrometry (LC-MS). […]

[2] = VP343 metabolites' identification by LC-MS in hepatic microsome supernatants; type: in vitro ADME; details: supernatants of mouse, dog and human hepatic microsomes incubated with VP343 for 45 min
Description: as §1, with “The samples' supernatants were then separated from the microsomes by centrifugation at 20,000 g during 10 minutes (Sorvall ST 16, Thermo Fisher Scientific) before analysis by liquid chromatography coupled to mass spectrometry (LC-MS).” left out
In each analytical system, the identification was performed in two steps. […] This means that, in a define range mass (m/z 250 to 450), each ion present in the sample should be detected. […] By adding collision energy, the products ions of the targeted metabolites were monitored to validate the supposed metabolite's structure obtained after injecting the sample in full scan mode.
To further investigate the number and nature of the metabolites, supernatants from mouse, dog and human hepatic microsomes incubated with VP343 for 45 min were analyzed by LC-MS (cf. protocol).

[3] = tested on: Leishmania infantum axenic amastigotes; assay: Evaluation on Leishmania donovani infantum axenic amastigotes (SYBR Green I); type: cell-based; details: Leishmania infantum; Table II; 3 different experiments, SYBR Green I method; read-out: IC50 axenic
Description: Protocol for Evaluation on Leishmania donovani infantum Axenic Amastigotes
Amastigote forms of the parasite were suspended to yield 10^7 parasitic cells mL^−1. The maximum final compound concentration used was 100 μM. Triplicates were used for each concentration. Cultures were incubated at 37° C. for 72 h in the dark and under a 5% CO2 atmosphere, then the viability of the amastigotes was assessed using the SYBR® Green I (Invitrogen, France) incorporation method. Parasite growth was determined by using SYBR® Green I, a dye with marked fluorescence enhancement upon contact with parasite DNA. Parasites were lysed and quantified by Direct PCR-Cell Genotyping without DNA isolation protocol (Euromedex, France). 10 μL of lysed parasite solution from each well was added to 40 μL of PCR-Cell reagent containing the SYBR® green I in a qPCR plate of 96 wells, and the contents were mixed. Fluorescence was measured with Mastercycler® ep realplex (Eppendorf, France). Measured fluorescence was compared to that from the range obtained with different parasite densities. The antileishmanial activity was expressed as IC50 in μM (concentration of drug inhibiting 50% of the parasite growth, comparatively to the controls treated with the excipient only).

[4] = Incubation of VP343 with dog hepatic microsomes (LC-MS); type: in vitro ADME; details: for VP343 residual concentration: t = 45 min
Description: as §1, §2
The metabolization of VP343 was studied by incubating the compound with mouse, dog, and human hepatic microsomes. The concentration of VP343 in the microsomal preparations was measured at t=0 and at t=45 min by liquid chromatography-tandem mass spectrometry (LC-MS). About 5% to 50% of VP343 remained after 45 min of incubation with mouse microsomes according to experiments (Table VI and FIG. 3, respectively). About 5% of VP343 remained with dog microsomes. About 40 to 55% remained with human microsomes.

## COc1ccc(Br)cc1CN(C)C12CC3CC(CC(C3)C1)C2 [VP343]
[1]; initial concentration 1 μM
  VP343 residual concentration: 0.41 µM
[1]; initial concentration 2 μM
  VP343 residual concentration: 1.08 µM
[1]; initial concentration 4 μM
  VP343 residual concentration: 1.62 µM
[2]
  Number of metabolites detected: 11
[3]
  IC50: 9.29 µM
[4]; 45 min
  VP343 remaining after incubation: About 5%
[4]; initial concentration 1 μM
  VP343 residual concentration: 0.03 µM
[4]; initial concentration 2 μM
  VP343 residual concentration: 0.09 µM
[4]; initial concentration 4 μM
  VP343 residual concentration: 0.12 µM
